Assay results published in patent US8390681B1, “Computer assisted semen analyzer to analyze digital video clips received from a remote location” (LifeCell Dx, Inc., priority 2008, dated 2013).

What was measured:
fertilization capacity = test: Fertilization capacity, concentration dependence of cannabinoids; conditions: higher concentrations
mouse sperm = test: Mouse sperm pre-treated with drug, then artificial insemination into the mouse uterus; fertilization and embryo development scored; type: in vivo
From the text: Studies show the cannabinoid implications in vivo in the mouse model. In separate experiments, mouse sperm are pre-treated with Meth-anandamide or AM-1346 and then the mouse sperm are inseminated into the mouse uterus (artificial insemination).
Each egg could be scored as 1-cell, 2-cell, 3-4 cell, 5-8 cell, morula, blastocysts or degenerated. Brief exposure of the sperm to the drug before insemination produces significant inhibition of 5 parameters. Compared to Control, the treated animals ovulate fewer ova (p<0.01, t-test). […] By Day 2, treatment produces a lower % of 2-cell eggs—again, fewer eggs are cleaving. […] The drug severely impairs fertilization and embryo development.

human sperm = test: Human sperm vigorous swimming (Hyperactivation, computer-tracking); type: cell-based
From the text: Fertilization assays include changes in human sperm vigorous swimming (Hyperactivation, computer-tracking), changes in % moving, and changes in the ability of drug-treated sperm to complete the acrosome reaction, and ability to bind to the human egg cover (Hemizona assay).

[1] = sperm pre-treated with 100 nM, Day 1
[2] = sperm pre-treated with 100 nM, Day 3

## CCCCC/C=C\C/C=C\C/C=C\C/C=C\CCCC(=O)NCCO [Anandamide, arachidonoyl-ethanolamide]
Fertilization capacity
  effect on fertilization capacity: trends towards reduced fertilization capacity

## CCCCC/C=C\C/C=C\C/C=C\C/C=C\CCCC(=O)N[C@H](C)CO [Methanandamide, R-methanandamide]
Mouse sperm; sperm pre-treated with 100 nM before insemination
  Number embryos per female: 4.3 ± 0.7
Mouse sperm; [1]
  % ova as 1-cell on Day 1: 91.3%
  Number of 2-cells on Day 1: 0.6 ± 0.2
Mouse sperm; [2]
  % embryos >2-cell on Day 3: 25.0%
  % embryos degenerated on Day 3: 44.2%
Fertilization capacity
  effect on fertilization capacity: biphasic effect: Higher concentrations produce inhibition

## CCCCC/C=C\C/C=C\C/C=C\C/C=C\CCCC(=O)NCc1ccoc1 [UCM]
Human sperm
  vigorous swimming of human sperm: blocks
